Laboratory results published in PMC10315696, “PSMA-GCK01: A Generator-Based ^99mTc/^188Re Theranostic Ligand for the Prostate-Specific Membrane Antigen” (Journal of Nuclear Medicine, 2023).
*1 amine or outer side, *2 acyl side, *3 side chain or, on linkers, in order; H or OH if unused. Where a SMILES comes first, the peptide text is derived from it. [ ]: non-standard residue; d: D form. The star is where a group is joined. X2 = O=C(O)CCC(NC(=O)NC(CCCCN*)C(=O)O)C(=O)O; 2Nal = N[CH](Cc1ccc2ccccc2c1)C(=O)O; X1 = O=C(C1CCC(N[*:1])CC1)[*:2]; Mercaptoacetyl = O=C(CS)*

Legend:
[1] = system: patients with metastatic castration-resistant prostate cancer; assay: Clinical imaging and therapy under compassionate care; format: in vivo, humans
Description: After giving written informed consent, 3 patients with metastatic castration-resistant prostate cancer received PSMA-radioligand therapy (RLT) and the related companion diagnostic under compassionate-care regulations. Prospective clinical trial registration is not required for compassionate care that is performed under an individual medical indication.
The timeline of imaging time points is illustrated in Figure 2.

mice = assay: Toxicologic investigation (OECD guideline)
Description: The evaluation was conducted using well-known standard methods ([16],[17]).

SMILES: O=C(O)CCC(NC(=O)NC(CCCCNC(=O)C(Cc1ccc2ccccc2c1)NC(=O)C1CCC(NC(=O)C(CO)NC(=O)C(CO)NC(=O)C(CO)NC(=O)CS)CC1)C(=O)O)C(=O)O (centres unmarked) [PSMA-GCK01] (Mercaptoacetyl-SSS[X1][2Nal]-X2; configuration not given here)
- liver-to-kidney uptake ratio compared with PSMA-617 ([1]; initially, intraindividual comparison): higher
- mortality (mice; mice): No test article–related mortality
- dose without toxicologic effect (mice; mice, third-party preclinical research organization): up to 2 mg/kg
- organ weights or macroscopic observations (mice; terminal or recovery euthanasia): No differences

SMILES: O=C([O-])CN1CCN(CC(=O)[O-])CCN(CC(=O)NCC2CCC(C(=O)N[C@@H](Cc3ccc4ccccc4c3)C(=O)NCCCC[C@H](NC(=O)N[C@@H](CCC(=O)O)C(=O)O)C(=O)O)CC2)CCN(CC(=O)[O-])CC1.[177Lu+3] (some centres unmarked) [^177Lu-PSMA-617, reference compound]
- clearance route ([1]; dual-photopeak imaging): combined renal and hepatointestinal clearance route
